Legend:
[1] = tested on: Bovine aortic endothelial cells; assay: Secretion of [35S]-labelled sulphated GAG into culture medium of BAE cells; format: cell-based; conditions: for Mean CSGAG (%) of total secreted sulphated GAG / Mean HSGAG (%) of total secreted sulphated GAG: BAE cell culture media; for Mean CSGAG (%) of total secreted sulphated GAG: CSase ABC degradation; for Mean HSGAG (%) of total secreted sulphated GAG: Heparitinase II degradation; for Maximum stimulation of HSGAG secretion (fold over the base level): at 10 μM odiparcil
Description: GAG secreted into cell culture supernatant were analysed in Bovine aortic endothelial cells (ECACC 92010601), cultured in 6-well plates and incubated for 24 h in the presence of [^35S] sodium sulphate ([…]; 0.1% final concentration of DMSO). The culture supernatants were recovered and the unincorporated [^35S] was then removed by gel filtration on Sephadex G25 columns, the GAG being eluted in the column exclusion fraction (V0). A solution of cetylpyridinium chloride (0.1% final concentration) was added to the eluent in order to precipitate the GAG for 24 h at room temperature. The samples were then centrifuged and the supernatant was removed. The precipitate obtained was re-suspended in 2 M magnesium chloride and the GAG were precipitated with 5 volumes of 95% ethanol. After centrifugation, the alcoholic precipitates were re-suspended in 0.9% sodium chloride and then the radioactivity was measured.
In order to sort the GAG produced in the supernatants from cells in culture, the re-suspended alcoholic precipitates were treated with chondroitinase ABC (Proteus vulgaris) in a proportion of 0.5 mU/μL, for 3 h at 37°C. After inactivation of the enzyme for 3 min at 100°C, the undigested GAG were precipitated with 5 volumes of 95% ethanol, overnight at 4°C. After centrifugation, the alcoholic precipitates were re-suspended in 0.9% sodium chloride and then the radioactivity was measured on an aliquot fraction after addition of scintillation fluid in counting vials. GAG of heparan sulphate type were treated with heparinase II (Flavobacterium heparinum) in a proportion of 4 mU/μl, for 12 h at 30°C. After inactivation of the enzyme for 3 min at 100°C, the undigested GAG were precipitated with 5 volumes of 95% ethanol, overnight at 4°C. After centrifugation, the alcoholic precipitates were re-suspended in 0.9% sodium chloride and then the radioactivity was measured on an aliquot fraction after addition of scintillation fluid in counting vials.

Arsb^- mice = assay: Cartilage thickness in trachea and distal femoral growth plate (histology); format: in vivo
Description: MPS VI model nonsense mutation Arsb^m1J homozygous mice (referred to as Arsb^- throughout the manuscript) and WT littermates were obtained from internal breeding of stock mice derived from The Jackson Laboratory strain No: 005598 (C57BL/6J-Arsb^m1J/GrsrJ). Genotyping and Arsb^m1J mutation identification were performed according to the protocol provided by The Jackson Laboratory. Each study group contained mix of male and female: 6 animals in disease progression studies and between 8 and 12 animals in odiparcil treatment studies.
Housing conditions. The animals were housed in groups of 3–10 (for mice) or 2 (for rats) in polypropylene cages (floor area = 1032 cm^2) under standard conditions: room temperature (22 ± 2°C), hygrometry (55 ± 10%), light/dark cycle (12h/12h), air replacement (15–20 volumes/hour), water and food ad libitum. Mice were allowed to habituate for at least 5 days prior to experimentation. Mice were numbered by marking their tail using indelible markers. For the early disease model (treatment starting in juvenile, 4 weeks old mice), odiparcil administration in the weeks 1 to 6 was done per gavage with odiparcil in Methylcellulose 400 cps 1% / Poloxamer 188 0.1% / Water, freshly prepared every week. Later on, administration was per chow diet with odiparcil mixed before diet granulation. […]

[2] = BAE cells, 24 h, [35S] sulphate

## Cc1cc(=O)oc2cc(O[C@@H]3SC[C@@H](O)[C@H](O)[C@H]3O)ccc12 [Odiparcil, 4-methyl-7-(5-thio-β-D-xylopyranosyloxy)-2 H-chromen-2-one]
[1]; odiparcil 0.1 µM
  Mean CSGAG (%) of total secreted sulphated GAG: 78.5%
  Mean HSGAG (%) of total secreted sulphated GAG: 34.5%
[1]; odiparcil 0.3 µM
  Mean CSGAG (%) of total secreted sulphated GAG: 83.5%
  Mean HSGAG (%) of total secreted sulphated GAG: 28.0%
[1]; odiparcil 1 µM
  Mean CSGAG (%) of total secreted sulphated GAG: 83.9%
  Mean HSGAG (%) of total secreted sulphated GAG: 16.0%
[1]; odiparcil 3 µM
  Mean CSGAG (%) of total secreted sulphated GAG: 82.5%
  Mean HSGAG (%) of total secreted sulphated GAG: 15.0%
[1]; odiparcil 10 µM
  Mean CSGAG (%) of total secreted sulphated GAG: 73.5%
  Mean HSGAG (%) of total secreted sulphated GAG: 19.5%
[1]; [2]
  Maximum CS-like GAGs (fold stimulation over the base level): 12.2 fold
  Maximum stimulation of HSGAG secretion (fold over the base level): 4.92 fold
[1]; BAE cells, 24 h, [35S] sulphate, achieved with 3 μM odiparcil
  Maximum stimulation of total GAG secretion (fold over the base level): 10.7 fold
[1]; BAE cells, 24 h, [35S] sulphate, listed as odiparcil
  Maximum stimulation of HSGAG secretion (fold over the base level): 4.9 fold
Arsb^- mice; Arsb^- mice, early and established disease models, 6 months of treatment
  Cartilage thickening in trachea and distal femoral growth plate: dose-dependent reduction of cartilage thickening
Arsb^- mice; wild type mice, early disease treatment model, only distal femoral growth plate, significant only for the high dose
  Cartilage thickness in wild type animals: Some decrease in the thickness of cartilage

— PMC7228089, “Odiparcil, a potential glycosaminoglycans clearance therapy in mucopolysaccharidosis VI—Evidence from in vitro and in vivo models” (PLoS ONE, 2020)
